From DBAASP come the findings set out here.

Test systems include Aeromonas sobria; Edwardsiella tarda; Escherichia coli MC1061; Staphylococcus aureus; Streptococcus sanguinis.
Experiment in all cases: ≥ marks a high value that may be exact or a test limit, other limits are often not marked, values filed in µg/mL are converted to µM
The subject of test [1] is Aeromonas hydrophila CGMCC 1.0927.
For test [2], the system named is Bacillus subtilis CGMCC 1.108.
Test [3] relates to Candida albicans CGMCC 2.2411.
Test [4] concerns Corynebacterium glutamicum CGMCC 1.1886.
In test [5] the test system is Micrococcus luteus CGMCC 1.0634.
For test [6], the system named is Micrococcus luteus CGMCC 1.634.
Test [7] has as its system Pseudomonas fluorescens CGMCC 1.0032.
The test system of test [8] is Shigella flexneri CGMCC 1.1868.
Test [9] has as its system Staphylococcus aureus CGMCC 1.363.
Test [10] has as its system Staphylococcus epidermidis CGMCC 1.2429.
Test [11] has as its system Vibrio alginolyticus CGMCC 1.1833.
Test [12] has as its system Vibrio fluvialis CGMCC 1.1609.
The subject of test [13] is Vibrio harveyi CGMCC 1.1593.
In test [14] the test system is Vibrio parahaemolyticus CGMCC 1.1615.
The subject of test [15] is Bacillus subtilis CICC 10034.
Test [16] deals with Candida albicans CICC 1965.
The subject of test [17] is Enterobacter cloacae CICC 21539.
Test [18] has as its system Escherichia coli CICC 10293.
For test [19], the system named is Listeria innocua CICC 10417.
Test [20] concerns Pseudomonas aeruginosa CICC 21636.
For test [21], the system named is Saccharomyces cerevisiae CICC 1002.
For test [22], the system named is Salmonella enterica subsp. enterica serovar Paratyphi B CICC 10437.
Test [23] relates to Serratia marcescens ATCC 4112.
Test [24] deals with Staphylococcus aureus CICC 10306.
Test [25] concerns Staphylococcus aureus CICC 10384.
Test [26] has as its system Candida albicans CPCC 400416.
Test [27] deals with Escherichia coli CPCC 100521.
Test [28] concerns Staphylococcus aureus CPCC 100520.

≈ marks a conversion by molar mass, not a printed value.

As a reminder, the MIC is the lowest concentration found to suppress growth. A higher MIC goes with weaker potency. For the compound `CC[C@H](C)[C@H](NC(=O)[C@H](CCCN=C(N)N)NC(=O)CNC(=O)[C@@H](NC(=O)[C@@H]1CCCN1C(=O)[C@H](Cc1ccccc1)NC(=O)[C@H](CCC(N)=O)NC(=O)[C@H](CC(C)C)NC(=O)CNC(=O)[C@H](C)NC(=O)[C@H](CCCN=C(N)N)NC(=O)[C@H](C)NC(=O)[C@H](CO)NC(=O)[C@H](CCCN=C(N)N)NC(=O)[C@H](CO)NC(=O)[C@@H](NC(=O)[C@H](C)NC(=O)[C@H](CCCCN)NC(=O)[C@H](C)NC(=O)[C@H](CCCCN)NC(=O)[C@H](C)NC(=O)[C@@H](N)CCCCN)C(C)C)C(C)C)C(=O)N[C@@H](Cc1cnc[nH]1)C(=O)N[C@@H](CCCN=C(N)N)C(=O)N[C@@H](Cc1cnc[nH]1)C(=O)N[C@@H](CC(C)C)C(=O)N[C@@H](CCCCN)C(=O)O` [KAKAKAVSRSARAGLQFPVGRIHRHLK], the MIC in test [1] was 1.06 µM (≈ 3.16 µg/mL); in the test with Aeromonas sobria, 4.24 µM (≈ 12.7 µg/mL); in test [2], 2.12 µM (≈ 6.33 µg/mL); in test [3] it was ≥ 33.9 µM; in test [4] it was 1.06 µM (≈ 3.16 µg/mL); in the test on Edwardsiella tarda, ≥ 48 µM. In addition, the MIC was determined as 2.12 µM (≈ 6.33 µg/mL) against Escherichia coli MC1061; 1.06 µM (≈ 3.16 µg/mL) in [5]; 1.06 µM (≈ 3.16 µg/mL) in test [6]; 1.06 µM (≈ 3.16 µg/mL) in [7]; 1.06 µM (≈ 3.16 µg/mL) in [8]; 2.12 µM (≈ 6.33 µg/mL) in [9]. For the same compound, the minimum inhibitory concentration (MIC) is 2.12 µM (≈ 6.33 µg/mL) in test [10]; ≥ 48 µM in [11]; ≥ 48 µM in test [12]; ≥ 48 µM in test [13]; ≥ 48 µM in test [14].
As to `CC[C@H](C)[C@H](NC(=O)[C@H](Cc1ccccc1)NC(=O)[C@@H](N)CC(C)C)C(=O)N[C@@H](Cc1ccccc1)C(=O)N[C@@H](Cc1ccccc1)C(=O)N[C@@H](Cc1ccccc1)C(N)=O` [LFIFFF], the MIC in the test with Staphylococcus aureus was determined as 15.4 µM (≈ 12.8 µg/mL); in the test with Streptococcus sanguinis, 4.65 µM (≈ 3.87 µg/mL).
Take `CC[C@H](C)[C@H](NC(=O)[C@H](CCSC)NC(=O)[C@H](CO)NC(=O)[C@@H](NC(=O)[C@@H](NC(=O)[C@@H](N)CCCCN)C(C)C)[C@@H](C)CC)C(=O)O` [KVISMI]: the MIC in [15] was ≥ 46.4 µM; in [16], ≥ 46.4 µM; in [17], 23.2 µM (≈ 16 µg/mL); in [18], 11.6 µM (≈ 8 µg/mL); in test [19], 5.8 µM (≈ 4 µg/mL); in test [20], 23.2 µM (≈ 16 µg/mL). The minimal inhibitory concentration (MIC) is ≥ 46.4 µM in [21]; ≥ 46.4 µM in test [22]; ≥ 46.4 µM in test [23]; 11.6 µM (≈ 8 µg/mL) in test [24]; 11.6 µM (≈ 8 µg/mL) in [25].
Consider `CC[C@H](C)[C@H](NC(=O)CN)C(=O)NCC(=O)N[C@@H](CO)C(=O)N[C@@H](C)C(=O)N[C@H](C(=O)N[C@@H](CC(C)C)C(=O)N[C@@H](CO)C(=O)N[C@@H](C)C(=O)NCC(=O)N[C@@H](CCCCN)C(=O)N[C@@H](CO)C(=O)N[C@H](C(=O)N[C@H](C(=O)N[C@@H](CCCCN)C(=O)NCC(=O)N[C@@H](CC(C)C)C(=O)N[C@@H](C)C(=O)N[C@@H](CCCCN)C(=O)NCC(=O)N[C@@H](CC(C)C)C(=O)N[C@@H](C)C(=O)N[C@@H](CCC(=O)O)C(=O)N[C@@H](Cc1cnc[nH]1)C(=O)N[C@@H](Cc1ccccc1)C(N)=O)[C@@H](C)CC)[C@@H](C)CC)[C@@H](C)CC` [GIGSAILSAGKSIIKGLAKGLAEHF], for which the MIC is ≥ 52.5 µM in [26], 26.2 µM (≈ 64 µg/mL) in [27] and 26.2 µM (≈ 64 µg/mL) in test [28].
